Drawing on PubChem BioAssay (NCI), this text covers TGI and GI50 for 26 compounds.

Several values for one entry are separate records, joined by “and”; a condition that tells them apart may be missing. Equal values may be shown once.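 Assay format: 96-well plates, 48-hour exposure. Abbreviation: GI50, concentration required for 50% inhibition of growth. At the TGI there is no net growth.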

Test systems include A498 renal; A549 NSCLC; ACHN renal; HOP-92 NSCLC; LOX IMVI melanoma; MOLT-4 leukemia; OVCAR-4 ovarian; RPMI-8226 leukemia.
Holding throughout (experiment): DTP human tumour cell line panel, 48 h

For orientation: TGI means the concentration giving total growth inhibition. A higher TGI goes with less potent growth arrest. As usually defined, the GI50 is the concentration giving 50% growth inhibition.

Take `CC(=O)CCn1ncc(Cl)c(Cl)c1=O`: the TGI in the experiment with A498 renal is 42.9 µM; in the experiment with A549 NSCLC, 44.6 µM; in the experiment with ACHN renal, 30.9 µM; in the experiment on HOP-92 NSCLC, 34.1 µM; in the experiment with LOX IMVI melanoma, 30.5 µM; in the experiment on MOLT-4 leukemia, over 100 µM. Further, the values for the TGI in the experiment on OVCAR-4 ovarian and with RPMI-8226 leukemia were 21.9 µM and over 100 µM, respectively.

For the compound `Nc1nc(Cl)cc(NCCCCCCCCNc2cc(Cl)nc(N)n2)n1`, the TGI with A549 NSCLC was over 100 µM; in the experiment with ACHN renal, 0.735 µM; with HOP-92 NSCLC it was 85.4 µM; in the experiment with LOX IMVI melanoma, 34.7 µM; in the experiment with OVCAR-4 ovarian it was over 100 µM; with RPMI-8226 leukemia, over 100 µM.

Regarding `CCC12CCCN(Cc3ccccc3)C1c1c(n(C)c3ccccc13)CC2` (stereo not drawn), the concentration for total growth inhibition (TGI) with A549 NSCLC was over 25.3 µM; in the experiment on ACHN renal it was over 253 µM; with HOP-92 NSCLC, over 253 µM; in the experiment on LOX IMVI melanoma, over 253 µM; in the experiment with MOLT-4 leukemia, over 253 µM; with RPMI-8226 leukemia it was over 253 µM.

Take `COC(=O)C(C(=O)c1ccccc1)C(C(=O)C(=O)Nc1ccc(OC)cc1OC)C(=O)C(=O)c1ccc(C)cc1` (stereo not drawn): the TGI in the experiment with A498 renal, with A549 NSCLC, with ACHN renal, in the experiment on LOX IMVI melanoma, with MOLT-4 leukemia and with OVCAR-4 ovarian was over 100 µM in each case. This compound returned a TGI with RPMI-8226 leukemia of over 100 µM.

As for `CN1CC(=O)N2Cc3ccccc3-n3cccc3C2C1` (stereo not drawn), the TGI with A498 renal, in the experiment with A549 NSCLC, with ACHN renal, in the experiment on LOX IMVI melanoma and in the experiment on OVCAR-4 ovarian was over 100 µM in each case.

`Cc1cn2c(=O)c3ncn(C4OC(CO)C(O)C4O)c3n(C)c2n1` (stereo not drawn): the total growth inhibition concentration (TGI) with A498 renal, in the experiment on A549 NSCLC, in the experiment on ACHN renal, in the experiment with HOP-92 NSCLC, with LOX IMVI melanoma and in the experiment on MOLT-4 leukemia was over 100 µM throughout. For the same compound, the TGI in the experiment on OVCAR-4 ovarian and with RPMI-8226 leukemia was over 100 µM throughout.

With `CC12C/C(=C\c3ccccc3)C(=O)C3C1CCCC32`, the TGI with A498 renal is over 100 µM; in the experiment on A549 NSCLC, over 100 µM; in the experiment with ACHN renal, over 100 µM; with HOP-92 NSCLC, over 100 µM; in the experiment with LOX IMVI melanoma it was over 100 µM; in the experiment with MOLT-4 leukemia it was 53.1 µM. For the same compound, the concentration for total growth inhibition (TGI) in the experiment on OVCAR-4 ovarian and with RPMI-8226 leukemia was over 100 µM throughout.

With `Cc1cc(Nc2ccc(NC(=O)c3ccc(Nc4ccnc5ccccc45)cc3)cc2)nc(N)n1`, the GI50 in the experiment with A498 renal was 5.13 µM; in the experiment with A549 NSCLC, 14.6 µM; in the experiment on ACHN renal it was 21.6 µM; with HOP-92 NSCLC it was 2130 nM; in the experiment with RPMI-8226 leukemia, over 100 µM. In addition, the TGI was over 100 µM in the experiment on A498 renal; over 100 µM in the experiment with A549 NSCLC; over 100 µM in the experiment with ACHN renal; 6.59 µM with HOP-92 NSCLC; over 100 µM with RPMI-8226 leukemia.

Take `OC(CC1SCCCS1)c1ccccc1` (stereo not drawn): the TGI in the experiment with A498 renal, in the experiment with A549 NSCLC, with ACHN renal, in the experiment with MOLT-4 leukemia, in the experiment on OVCAR-4 ovarian and in the experiment on RPMI-8226 leukemia was over 100 µM each time.

As to `O=C(CCN(C(=O)O)S(=O)(=O)c1ccc(NC(=O)c2ccccc2)cc1)Nc1ccccc1`, the TGI in the experiment on A498 renal was over 100 µM; in the experiment on A549 NSCLC, over 46.4 µM; in the experiment with ACHN renal, over 100 µM; in the experiment on HOP-92 NSCLC, over 100 µM; with LOX IMVI melanoma, over 71.4 µM; in the experiment with MOLT-4 leukemia, over 85.3 µM. The total growth inhibition concentration (TGI) with OVCAR-4 ovarian is over 100 µM; in the experiment on RPMI-8226 leukemia, over 82.4 µM.

In the case of `CC(C)C(CCl)NC(=O)c1cccc(C(=O)N[C@H](CCl)C(C)C)n1` (stereo in doubt), the TGI in the experiment with A498 renal, in the experiment on A549 NSCLC, in the experiment on ACHN renal, in the experiment with HOP-92 NSCLC, in the experiment with LOX IMVI melanoma and with MOLT-4 leukemia was over 100 µM throughout. Further, the TGI with OVCAR-4 ovarian and in the experiment with RPMI-8226 leukemia was over 100 µM in each case.

As for `C#CCOc1cccc(-c2ncc3cc(NC(=O)CCl)ccc3n2)c1`, the GI50 in the experiment with A498 renal was 13.2 µM; in the experiment on A549 NSCLC, 2.11 µM; in the experiment on ACHN renal, 1.72 µM. Moreover, the results for the TGI in the experiment with A498 renal, in the experiment with A549 NSCLC and in the experiment on ACHN renal were 31 µM, 4.43 µM and 3.19 µM, respectively.

Turning to `CCN(CC)CCCN1CCc2c([nH]c3ccccc23)C1c1cccnc1` (stereo not drawn), the TGI in the experiment with A498 renal, with A549 NSCLC, in the experiment on ACHN renal, with HOP-92 NSCLC, in the experiment with LOX IMVI melanoma and with MOLT-4 leukemia was over 100 µM each time. For the same compound, the total growth inhibition concentration (TGI) in the experiment with OVCAR-4 ovarian and in the experiment on RPMI-8226 leukemia was over 100 µM in each case.

With `CC(C)N(C(=O)C12C3C4C1C1C4(C#N)C3C12C#N)C(C)C` (stereo not drawn), the TGI in the experiment with A498 renal, with A549 NSCLC, in the experiment on ACHN renal, in the experiment with HOP-92 NSCLC, in the experiment with MOLT-4 leukemia and in the experiment on OVCAR-4 ovarian was over 100 µM each time. In the experiment on RPMI-8226 leukemia, this compound yielded a TGI of over 100 µM.

As for `CC1(C)COC(C2(C)C(=O)C=C(c3ccccc3)c3ccccc32)=N1` (stereo not drawn), the TGI with A549 NSCLC, in the experiment with ACHN renal, in the experiment on HOP-92 NSCLC, in the experiment on MOLT-4 leukemia, in the experiment with OVCAR-4 ovarian and with RPMI-8226 leukemia was over 100 µM in each case.

On to `O=C1c2ccccc2C(=O)N1CCn1ccc(NC(c2ccccc2)(c2ccccc2)c2ccccc2)nc1=O`, for which the total growth inhibition concentration (TGI) in the experiment on A498 renal is 38.6 µM; in the experiment with A549 NSCLC it was over 100 µM; in the experiment with ACHN renal, 92.7 µM; with HOP-92 NSCLC, 53.3 µM; with LOX IMVI melanoma it was 31.8 µM; in the experiment on MOLT-4 leukemia, 43 µM. For the same compound, the TGI in the experiment with OVCAR-4 ovarian was 59.2 µM; in the experiment on RPMI-8226 leukemia, 51.3 µM.

Regarding `[N-]=[N+]=NC1(Cc2ccccc2)C(=O)c2cccc3c2N(CCC3)C1=O` (stereo not drawn), the TGI in the experiment with A549 NSCLC, with ACHN renal, with HOP-92 NSCLC, with LOX IMVI melanoma, in the experiment on MOLT-4 leukemia and in the experiment with OVCAR-4 ovarian was over 100 µM each time. In the experiment on RPMI-8226 leukemia, this compound had a TGI of over 100 µM.

As for `CCCCOC(=O)CNC(=O)OC/C=C/C#CC#C/C=C/COC(=O)NCC(=O)OCCCC`, the GI50 was over 100 µM in the experiment with A498 renal; over 100 µM in the experiment on A549 NSCLC; over 100 µM in the experiment on ACHN renal; over 100000 nM with HOP-92 NSCLC; over 100 µM in the experiment on MOLT-4 leukemia; over 100 µM with OVCAR-4 ovarian. For the same compound, in the experiment on RPMI-8226 leukemia, the GI50 was over 100 µM. Moreover, the TGI was over 100 µM in the experiment on A498 renal; over 100 µM in the experiment on A549 NSCLC; over 100 µM with ACHN renal; over 100 µM in the experiment on HOP-92 NSCLC; over 10 µM in the experiment on LOX IMVI melanoma; over 100 µM in the experiment on MOLT-4 leukemia. Besides, the TGI in the experiment on OVCAR-4 ovarian and in the experiment with RPMI-8226 leukemia was over 100 µM each time.

On to `O=[N+]([O-])c1cccc(C2=NN(c3ccccc3)C[N+](c3ccc(Br)cc3)=N2)c1`, for which the TGI with A498 renal, in the experiment on A549 NSCLC, with ACHN renal, in the experiment on HOP-92 NSCLC, in the experiment with MOLT-4 leukemia and with OVCAR-4 ovarian was over 100 µM in each case. The compound also displayed a concentration for total growth inhibition (TGI) in the experiment on RPMI-8226 leukemia of over 100 µM.

Turning to `O=c1/c(=C/c2ccccc2[N+](=O)[O-])sc2nnc(-c3ccco3)n12`, the total growth inhibition concentration (TGI) with A498 renal was over 100 µM; in the experiment with A549 NSCLC it was 60.3 µM; with ACHN renal, over 100 µM; in the experiment on HOP-92 NSCLC it was over 100 µM; in the experiment on LOX IMVI melanoma it was 31.8 µM; in the experiment with MOLT-4 leukemia it was 62 µM. Besides, the total growth inhibition concentration (TGI) in the experiment with OVCAR-4 ovarian is 40 µM.

`CCC(=O)CC(=O)CCC(=O)Nc1cc(C)ccc1C`: the TGI in the experiment on A498 renal, in the experiment with A549 NSCLC, in the experiment with ACHN renal, with HOP-92 NSCLC, in the experiment on LOX IMVI melanoma and with MOLT-4 leukemia was over 100 µM in each case. This compound showed a concentration for total growth inhibition (TGI) in the experiment on RPMI-8226 leukemia of over 100 µM.

For `O=C1CCC(Cl)=CC2CCCN12` (stereo not drawn), the TGI in the experiment with A498 renal, in the experiment with A549 NSCLC, with ACHN renal, with HOP-92 NSCLC, in the experiment on LOX IMVI melanoma and in the experiment on MOLT-4 leukemia was over 100 µM in each case. This compound registered a concentration for total growth inhibition (TGI) with RPMI-8226 leukemia of over 100 µM.

Consider `CC(C)(C)NNC(=O)CCn1[nH]c(=O)c(Cl)c(Cl)c1=O`, for which the concentration for total growth inhibition (TGI) with A498 renal, with A549 NSCLC, in the experiment on ACHN renal, in the experiment with LOX IMVI melanoma, in the experiment with MOLT-4 leukemia and with OVCAR-4 ovarian was over 100 µM each time. In the experiment with RPMI-8226 leukemia, this compound registered a TGI of over 100 µM.

For the compound `Clc1ccc2c(c1)[nH]c1c2nc2ccccn21`, the TGI is > 100 µM and 44.5 µM in the experiment on A498 renal; > 100 µM and 74.2 µM in the experiment on A549 NSCLC; 83 µM in the experiment on ACHN renal; 76.8 µM and 42.7 µM in the experiment with MOLT-4 leukemia; 64.7 µM and 54.5 µM with RPMI-8226 leukemia. In addition, the GI50 with ACHN renal was 28.1 µM; in the experiment on MOLT-4 leukemia it was 28.4 µM and 5.44 µM.

As to `O=C(Nc1ccn(CCO)c(=O)n1)c1ccccc1`, the TGI in the experiment on A498 renal, with A549 NSCLC, in the experiment with ACHN renal, in the experiment on HOP-92 NSCLC, in the experiment with LOX IMVI melanoma and in the experiment on OVCAR-4 ovarian was over 100 µM each time. Moreover, the concentration for total growth inhibition (TGI) with RPMI-8226 leukemia was over 100 µM.

On to `Cc1ccc(S(=O)(=O)N(C=O)N=C2CCN(Cc3ccccc3)CC2)cc1`, for which the TGI with A498 renal, in the experiment on A549 NSCLC, in the experiment on ACHN renal, in the experiment on LOX IMVI melanoma, in the experiment on MOLT-4 leukemia and in the experiment on OVCAR-4 ovarian was over 100 µM throughout. This compound came in with a TGI in the experiment on RPMI-8226 leukemia of over 100 µM.
